Results on one compound are retold here after patent US12239648B2, “KIF5B-RET fusion molecules and uses thereof” (Foundation Medicine, Inc., priority 2011, dated 2025).

Experiment [1] relates to Thyroid cancers and cell lines harboring PTC-RET translocations. As to conditions: PTC/RET translocations overexpressing the RET kinase domain; Henderson 2008, Carlomagno 2006; cited from earlier work.
The test system of a further experiment is KIF5B-RET Ba/F3 cells. The experiment in a line: Effects of drugs on Ba/F3 cells transfected with KIF5B-RET fusion constructs (IL-3 independent growth). Format: cell-based. The settings on record: Ba/F3 cells expressing KIF5B-RET, FIG. 8. The text has this: FIG. 8 is a graph showing the effects of different drugs on Ba/F3 cells transfected with KIF5B-RET fusion constructs.

Structures are written as SMILES.

As for `CNC(=O)c1cc(Oc2ccc(NC(=O)Nc3ccc(Cl)c(C(F)(F)F)c3)cc2)ccn1` [sorafenib], the “sensitivity of thyroid cancer and cell lines harboring PTC/RET translocations” value in experiment [1] is listed as “sensitive”. Also, the “sensitivity of KIF5B-RET transformed Ba/F3 cells to drug” value in the experiment with KIF5B-RET Ba/F3 cells was “sensitive”.
